Measured values as given in patent US20040171594A1, “Use of bis-acid(5-androsten-17-one-3beta-hydroxyl)diester for manufacture pharmaceuticals” (priority 2001, published 2004).
Marks after values point to notes of the source that are not given here.

Key:
[1] = tested on: arrhythmia of guinea pigs induced by Ouabain; experiment: Arrhythmia of guinea pigs induced by Ouabain; format: in vivo; conditions: n=8
Method: Chose 40 male guinea pigs, weighing (288.8±38.3) g, randomly divided into six groups, anaesthetized with urethane 1.2 g/kg by abdominal injection. Ten minutes after administered drug or 0.5% CMC-Na, the guinea pigs were injected Ouabain into external jugular vein at 3 μg/min speed, recorded ECG respectively, measured the dose at appearance time of VP, VT, VF and CA, and performed t test.

[2] = tested on: cerebral ischemia-reperfusion injury of mice; experiment: Memory step-through test after cerebral ischemia-reperfusion injury; format: in vivo, NIH mice; conditions: 4.5 mg/kg intragastric once a day for 10 days, n=10
Method: After weighed, NIH mice were anaesthetized with Penbotarbital 60 mg/kg, then performed operation. Fixed at supine position, the skin in the middle of the deck was dissected about 7 mm. Separated common carotid artery of two sides of neck, surrounded with the thread of No “0”. Common carotid artery of two sides was chipped with artery clip for 2 minutes to induce cerebral ischemia. In the end of ischemia treatment, artery clip was loosed and blood perfusion was restored, rest for five minutes, repeated twice as that. After blocking blood flow of carotid, sutured incision. Recorded trail bloodletting, bloodletting quantity was no more than 10% of total blood quantity. After operation, […] were administered with proper physiological saline through intraperitoneal injection in order to supple capacity of blood. After pseudo operation group was anaesthetized, carotid of two sides was separated but blood flow was not blocked, without being bloodletting too.
In experiment appearance of body temperature lowering and righting reflex disappearing was as positive guide-line of ischemia, discarding those without typical guide line of ischemia. In the procedure of ischemia or after operation, some of animals would be dead. […] According to the dose of Table 7, animals were administered with medicine by intragastric intubation once a day, and continue administered drug for 10 days. After 10 days, memory test was performed.

[3] = tested on: myocardium injury model of rats induced by ISO; experiment: Myocardium injury (myocardial ischemia) model of rats induced by ISO; format: in vivo, SD rats; conditions: drug 0.76 mg/kg, n=8; for Σ ST: rats, ISO s.c.
Method: SD rats were measured ECG by chest leads before experiment, abandoned those of abnormal or arrhythmia at T wave, ST sect. […] They were divided into four groups according to Table 4, eight rats in each group. As dose of Table 4, tested compounds or 0.5% CMC-Na solution with same volume were administered through duodenum for 30 minutes, rats were anaesthetized with aether. After ECG was recorded, Isoproterenol (ISO) was administered by subcutaneous injection from the back, recorded ECG again after 30 minutes. After specimen was intragastricly granted for 24 hours and 48 hours, every group was administered simples again and recorded ECG again in terms of the methods stated above. After 72 hours, bleeding from the ophthalmic venous plexus and separated blood serum through centrifugation. Killed the rats, scissor the tip of the heart to prepare 10% myocardial tissue homogenate with 4° C. physiological saline as standby.
Measured each rat's value of ST before first administering ISO. And after first, second and third subcutaneous injection for 30 minutes, calculated mv mean value of ΣST as guide line of myocardium injury and performed t test.
The changes of MDA LDH and CK in serum were measured with agent kits.
The changes of MDA, LDH and CK in serum and myocardial tissue homogenate were measured with agent kits.

[4] = tested on: osteoporosis model of rats induced by Retinoic acid; experiment: Osteoporosis model of rats induced by Retinoic acid; format: in vivo, SD rats; conditions: Retinoic acid 70 mg/kg, specimen orally 30 days (dose not given), right thighbone, n=8
Description: After continuously administering specimen for 30 days, killed rats and took right thighbone of rat.
Took same part tissue of right thighbone, routinely decalcified, enveloped with olefin, and dyed with HE. Observed with ordinary optics microscope, import all imagines into computer with A/D conversion of pickup camera, via dealing with image analysis software obtained index of guide line as follows: relative bone volume, indicating percentage that bone trabecula accounted for medullary cavity, 1.25×10×4 times; average width of bone trabecula, 1.25×10×10 times; amount of cell per area in bone trabecula, gathering same area image (640×480) of bone trabecula with image analysis software, calculating amount of bone cell in corresponding area, 1.25×10×40 times; Average length of bone cell lacuna, 1.25×10×40; Average width of bone cell lacuna, 1.25×10×40. The above five indexes of static state guide-line were all observed for ten eyeshots, calculating their average value.

[5] = tested on: acute renal failure of mice induced by endotoxin; experiment: Acute renal failure model induced by endotoxin; format: in vivo, NIH mice; conditions: drug 10 mg/kg i.p., endotoxin 0.06 g/kg, after five hours, n=10; for GSH-Px: mice kidney homogenate; for BUN / Cr: mice serum
Method: After five hours, blood of the mice was collected by removing eyes, assayed Blood Urea Nitrogen (BUN) and Creatinine (Cr) concentration of serum. One kidney of each […] was taken out and made 100 mL/L homogenate, assayed activity of Glutathione Peroxidase (GSH-Px) enzyme.

[6] = tested on: thymus and spleen of mice; experiment: Indexes of thymus and spleen of mice injected with cyclophosphamide; format: in vivo, NIH mice; conditions: cyclophosphamide 60 mg/kg i.p., drug 10 mg/kg intragastric for 30 days, n=10
Method: Chose 90 healthy NIH mice, weighing (18˜22)g, equal amount of male and female. Every mouse was injected with cyclophos phamide (60 mg/kg, intraperitoneally). […] Administered specimen through intragastric intubation in terms of the dose in Table 8. Continuously administered orally specimen for 30 days, all mice fasted on the 30th day, but were supplied with water. On the 31th day, mice of every group were killed. Weighed their body, thymus and spleen, calculated index of thymus and spleen, compared the difference among each group.

[7] = tested on: arrhythmia of rats induced by Aconitine; experiment: Arrhythmia of rats induced by Aconitine; format: in vivo, SD rats
Method: Male SD rats, weighing (218.3±20.0) g, were anaesthetized with urethane 1.2 g/kg body weight by abdominal injection, continuously monitored by II lead electrocardiogram (ECG) by MS302 Biological Signal Record and Analysis System. After ten minutes of being administered drug or 0.5% CMC-Na through sublingual vein, rats were injected with Aconitine in external jugular vein at 2.5 μg/min speed, recorded the dose at appearance time of ventricular premature beat (VP), ventricular tachycardia (VT), ventricular fibrillation (VF) and cardiac arrest (CA), respectively. And t test was performed. […] The effect of compounds Ca Do E at 0.5 mg/kg dose were remarkably better than that of Prasterone and Arniodarone.

[8] = drug 2.5 mg/kg 10 min before Ouabain 3 μg/min
[9] = myocardial tissue homogenate of rats with ISO myocardium injury
[10] = serum of rats with ISO myocardium injury, after 72 hours
[11] = rats, drug 0.5 mg/kg sublingual vein 10 min before Aconitine 2.5 μg/min, n=10
[12] = drug 4.5 mg/kg 10 min before Ouabain 3 μg/min

Molecule | Latency of dark cabin, Memory [2] [s] | Latency of dark cabin, Study [2] [s] | Number of error [2] [n] | Activity of CK [3, 9] [U/L] | MDA [3, 9] [nmol/g] | Σ ST ([3]; 30 min) [mv] | Σ ST ([3]; 24 h) [mv] | Σ ST ([3]; 48 h) [mv] | Σ ST ([3]; 72 h) [mv] | Activity of CK [3, 10] [U/L] | Activity of LDH [3, 10] [U/L] | MDA [3, 10] [nmol/mL] | Amount of cell per area in bone trabecula [4] | Average width of bone trabecula [4] [μm] | GSH-Px [5] [nU · L^−1] | BUN [5] | Cr [5] | Relative bone volume [4] [%] | Dose of Aconitine required to induce CA [7, 11] [mg/kg] | Dose of Aconitine required to induce VF [7, 11] [mg/kg] | other results
propanediol-disulphonic acid-(5-androsten-17-one-3β-ol)-diester [Compound H] | 56.0 ± 17.2 | 26.2 ± 15.2 | 3.0 ± 1.5 | 230.15 ± 53.46 | 105.52 ± 14.64 | 0.53 ± 0.11 | 0.50 ± 0.10 | 0.52 ± 0.04 | 0.51 ± 0.12 | 261.24 ± 24.27 | 253.24 ± 31.55 | 21.17 ± 3.36 | 35.69 ± 3.70 | 60.84 ± 4.81 | 35.6 ± 10.7 | 366.0 ± 30.2*** 10 mg · L^−1 | 35.78 ± 7.26*** 10 mg · L^−1 | – | – | – | Dose of Oua at appearance of CA [1, 8]: 0.2232 ± 0.0307 mg/kg; Dose of Oua at appearance of VF [1, 8]: 0.1981 ± 0.0415 mg/kg; Dose of Oua at appearance of VP [1, 8]: 0.116 ± 0.037 mg/kg; Dose of Oua at appearance of VT [1, 8]: 0.1402 ± 0.0356 mg/kg
C=C1/C(=C\C=C2/CCC[C@]3(C)[C@@H]([C@H](C)CCCC(C)(C)O)CC[C@@H]23)C[C@@H](O)C[C@@H]1O [Rocaltrol, reference compound] | – | – | – | – | – | – | – | – | – | – | – | – | 19.27 ± 3.89 | 67.16 ± 13.11 | – | – | – | 36.72 ± 7.82 | – | – | –
C[C@]12CC[C@H](OC(=O)CCCC(=O)O[C@H]3CC[C@@]4(C)C(=CC[C@@H]5[C@@H]4CC[C@]4(C)C(=O)CC[C@@H]54)C3)CC1=CC[C@@H]1[C@@H]2CC[C@]2(C)C(=O)CC[C@@H]12 [Compound E, glutaric acid-(5-androsten-17-one-3β-ol)-diester] | 45.8 ± 12.9 | 24.1 ± 16.0 | 3.1 ± 2.7 | 206.18 ± 43.80 | 89.62 ± 12.37 | 0.53 ± 0.11 | 0.50 ± 0.10 | 0.57 ± 0.04 | 0.51 ± 0.07 | 275.44 ± 21.81 | 267.35 ± 38.42 | 25.54 ± 3.80 | 19.35 ± 3.13 | 68.66 ± 9.80 | 32.0 ± 14.4 | 315.9 ± 40.8*** 10 mg · L^−1 | 32.86 ± 8.07*** 10 mg · L^−1 | 35.87 ± 3.12 | 0.1845 ± 0.0271 | 0.1634 ± 0.0305 | Index of spleen [6]: 68.20 ± 9.82 mg/10 g body weight; Index of thymus [6]: 20.22 ± 2.75 mg/10 g body weight; Dose of Aconitine required to induce VP [7, 11]: 0.1082 ± 0.0374 mg/kg; Dose of Aconitine required to induce VT [7, 11]: 0.1224 ± 0.0378 mg/kg; Activity of LDH [3, 9]: 160.27 ± 20.36 U/L
C[C@]12CC[C@H](O)CC1=CC[C@@H]1[C@@H]2CC[C@]2(C)C(=O)CC[C@@H]12 [Parsterone, Prasterone, reference compound] | – | – | – | – | – | – | – | – | – | – | – | – | – | – | – | – | – | – | – | – | Dose of Aconitine required to induce CA ([7]; {}): 0.1645 ± 0.0271 mg/kg; Dose of Aconitine required to induce VF ([7]; {}): 0.1327 ± 0.0244 mg/kg; Dose of Aconitine required to induce VP ([7]; {}): 0.0935 ± 0.019 mg/kg; Dose of Aconitine required to induce VT ([7]; {}): 0.11 ± 0.0161 mg/kg; Dose of Oua at appearance of CA [1, 12]: 0.1955 ± 0.033 mg/kg; Dose of Oua at appearance of VF [1, 12]: 0.1654 ± 0.0264 mg/kg; Dose of Oua at appearance of VP [1, 12]: 0.0893 ± 0.0155 mg/kg; Dose of Oua at appearance of VT [1, 12]: 0.1316 ± 0.0246 mg/kg
C[C@]12CC[C@H](OC(=O)CC(=O)O[C@H]3CC[C@@]4(C)C(=CC[C@@H]5[C@@H]4CC[C@]4(C)C(=O)CC[C@@H]54)C3)CC1=CC[C@@H]1[C@@H]2CC[C@]2(C)C(=O)CC[C@@H]12 [Compound C, malonic acid-(5-androsten-17-one-3β-ol)-diester] | 58.1 ± 16.2 | 24.4 ± 17.3 | 2.5 ± 1.5 | 186.55 ± 26.25 | 121.67 ± 15.24 | 0.64 ± 0.21 | 0.52 ± 0.11 | 0.50 ± 0.14 | 0.52 ± 0.12 | 262.50 ± 35.41 | 270.13 ± 27.46 | 28.29 ± 6.56 | 19.50 ± 5.54 | 72.69 ± 10.38 | 29.8 ± 11.6 | 387.0 ± 40.2*** 10 mg · L^−1 | – | – | 0.1865 ± 0.0317 | 0.1528 ± 0.0393 | Dose of Aconitine required to induce VP [7, 11]: 0.098 ± 0.0291 mg/kg; Dose of Aconitine required to induce VT [7, 11]: 0.1189 ± 0.0353 mg/kg; Activity of LDH [3, 9]: 201.33 ± 25.24 U/L
